The numbers were not newly measured in patent publication US9750683B2, “Antifungal compositions for the treatment of skin and nails” (Veloce BioPharma, LLC, priority 2012, dated 2017), which cites them from elsewhere.

Molecules are shown by their SMILES. Read-outs that look alike come from different tables or passages of the source.

With `COC1=CC(=O)C[C@@H](C)[C@]12Oc1c(Cl)c(OC)cc(OC)c1C2=O` [griseofulvin], the ratio of penetration reads like this: (dissolved in DMSO, relative to the other solvents) 60; (dissolved in alcohol) 3; (dissolved in benzene) 1; (dissolved in dimethylacetamide) 40; (dissolved in dimethylformamide) 7.
